Where no end group is shown, it is not given here. DAG = diacylglycerol ester at the C-terminus
Experiments:
[1] = test system: M. tuberculosis IgM; design: species or system New Zealand White rabbits; settings: rabbit, in vivo
[2] = Stability of PDAG to hydrolysis; type: physicochemical; settings: acidic conditions
[3] = test system: AR39 Chlamydia pneumoniae; assay: Chlamydia pneumoniae clearance from infected THP-1 monocytes (flow cytometry); type: cell-based; settings: 25 ng/ml and 50 ng/ml
Experimental: THP-1 monocytes (5×10^4 cells/well) were cultured in Hank's Buffered Saline 1 with 10% FBS in a 24-well microplate. Cells were infected with […] AR39 Chlamydia pneumoniae (CPn) bacteria cells to give an MOI=1 and the infected cells were maintained for 72 hours after infection with a daily media change. Cells were either treated with the PDAG vehicle (0.01% Tween-20 in DMSO) or PDAG (25 ng/ml and 50 ng/ml) 24 hours prior to infection or 24 hours after infection. After the 72 hour incubation period cells were harvested and permeabilized with Cytofix/Cytoperm (BD Pharmingen) and mouse α-CPn monoclonal IgG (clone 61C75) was added and the permeabilized cells incubated for 1 hour. After incubation cells were washed and FITC labeled α-mouse IgG was added and incubated for 1 hour. Cells were again harvested and washed. Quantitation of infected cells was measured by flow cytometry. The viability of cells was determined by trypan blue exclusion.

[4] = test system: IL-6; assay: IL-6 mRNA (real-time PCR) and IL-6 protein (ELISA) in fibroblasts stimulated with PDAG; type: cell-based; settings: 100 pg/ml PDAG, 24 h
Experimental: Fibroblasts were stimulated with synthetic PDAG for 24 h. RNA was extracted from the fibroblasts and IL-6 transcripts were measured by real-time PCR and IL-6 protein was measure in the media by ELISA. […] Likewise approximately 2-fold more IL-6 protein in the media of the PDAG treated fibroblasts (P=0.0001) was measured.

[5] = test system: NALP3; assay: NALP3 transcripts in primary human fibroblasts incubated with PDAG; type: cell-based; settings: 100 pg/ml, overnight, P=0.007
Experimental: (§1) mRNA was extracted from primary human fibroblasts incubated overnight with 100 pg/ml synthetic PDAG. NALP3 and NFκB transcripts were measured.

[6] = test system: NFκB; assay: NFκB transcripts in primary human fibroblasts incubated with PDAG; type: cell-based; settings: 100 pg/ml, overnight, P=0.4
Experimental: as §1

[7] = test system: Hepatitis B virus; assay: HBV replication in HepDES19 cells (core DNA Southern blot); type: cell-based; settings: HepDES 19 cells
Experimental: A tetracycline inducible HBV-stable cell line, HepDES19 cells (Guo, 2007), were maintained in DMEM/F-12 medium with penicillin and streptomycin (Invitrogen), 10% FBS, 500 μg/ml G418 (Invitrogen) and 1 μg/ml tetracycline (Sigma-Aldrich, St. Louis, Mo.). To initiate the HBV replication in HepDES19 cells, tetracycline was withdrawn from the medium and the cell was cultured for 4-5 days before viral DNA analysis. To treat the cells with pDAG, the peptide was added in the tetracycline free medium and supplied on the cell culture daily. The concentration of solvent DMSO was adjusted to 0.01% in every treatment.
HBV core DNA was extracted from pDAG-treated HepDES19 cells as described previously (Guo, 2009). Briefly, cells from one 35 mm dish were lysed with 0.5 ml of lysis buffer (10 mM Tris-HCl pH 8.0, 10 mM EDTA, 1% NP40 and 2% sucrose) at 37° C. for 10 minutes. Cell debris and nuclei were removed by centrifugation and the supernatant was mixed with […] of 35% polyethylene glycol (PEG-8000) containing 1.5 M NaCl. After 1 hour incubation in ice, viral nucleocapsids were pelleted by centrifugation at 10,000 rpm for 5 min at 4° C., followed by 1 hour digestion at 37° C. in 200 μl of digestion buffer [0.5 mg/ml pronase (Calbiochem), 0.5% SDS, 150 mM NaCl, 25 mM Tris-HCl pH 8.0, and 10 mM EDTA]. […]

[8] = test system: Salmonella typhimurium; assay: Lethal Salmonella typhimurium challenge in mice; type: in vivo, Swiss Webster mice
Experimental: Swiss Webster mice were challenged with a lethal dose, 5×10^3 cfu/mouse of Salmonella typhimurium. Fifteen of the mice were treated with 5 μg/ml PDAG 24 hours prior to the lethal inoculation. Mice were maintained and monitored daily for 10 days. […] By day 10, 12 mice in the PDAG treated group remained alive, whereas all had died in the untreated group. P<0.0001.

Substance | IgM titer, FCA+PDAG vs FCA only [1] | lability to hydrolysis [2] | Chlamydia pneumoniae clearance from infected monocytes [3] | IL-6 protein in the media ([4]; ELISA, vs control, P=0.0001) | IL-6 mRNA levels ([4]; vs untreated cells, P=0.001) | NALP3 transcripts increase [5] [fold] | NFκB transcripts increase [6] | Hepatitis B virus replication [7] | antigen specific IgM production [1] | mice remaining alive by day 10 ([8]; fifteen treated mice, 5 μg/ml PDAG 24 hours prior to lethal inoculation, all untreated died, P<0.0001) [mice] | disease progression ([8]; mice infected with a lethal dose of Salmonella typhimurium) | day on which mortality was first observed ([8]; mice, 5×10^3 cfu/mouse, 5 μg/ml PDAG 24 hours prior to inoculation, control group day 4) [days]
acALYDKGYTSKEQKDCVGI-DAG [native PDAG] | significantly greater | especially labile to hydrolysis under acidic conditions | – | – | – | – | – | – | – | – | – | –
PDAG peptide: Peptide portion of PDAG without the lipid moiety (acALYDKGYTSKEQKDCVGI, SEQ ID NO:8) (Ac-ALYDKGYTSKEQKDCVGI) | – | – | induce Chlamydia pneumoniae clearance | – | – | – | – | – | – | – | – | –
acALYDKGYTSKEQKDCVGI-DAG (Ac-ALYDKGYTSKEQKDCVGI-{DAG}) [PDAG, Peptidyl diacylglyceride: N-acetylated 18-mer peptide esterified at C-terminal isoleucine to 1-stearoyl-2-arachidonoyl-sn-glycerol] | – | – | induce Chlamydia pneumoniae clearance | approximately 2 fold | increase IL-6 mRNA levels | 1.75 | did not | suppresses Hepatitis B virus replication | two-fold increase | 12 | significantly delays disease progression | 7

From patent US9662370B2, “Peptidyl diacylglycerides” (priority 2008, dated 2017)
